Measured values taken from ChEMBL document CHEMBL1201862, “PubChem BioAssay data set” (2004).
The source made the active and inactive calls.

Tests used:
[1] = target: T1, Heat shock factor protein 1 (Mus musculus, UniProt P38532); assay: inhibition of MG132-induced HSE-luciferase signal, confirmation, cell-based, NIH3T3, luminescence, dose retest (AID 2382); assay type: functional;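 further: NIH3T3 fibroblasts with HSF1-driven luciferase reporter stressed by proteasome inhibitor MG132; luminescence from HSF1-driven luciferase expression after 8 hours of MG132 stress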
T1 sequence (P38532 whole entry): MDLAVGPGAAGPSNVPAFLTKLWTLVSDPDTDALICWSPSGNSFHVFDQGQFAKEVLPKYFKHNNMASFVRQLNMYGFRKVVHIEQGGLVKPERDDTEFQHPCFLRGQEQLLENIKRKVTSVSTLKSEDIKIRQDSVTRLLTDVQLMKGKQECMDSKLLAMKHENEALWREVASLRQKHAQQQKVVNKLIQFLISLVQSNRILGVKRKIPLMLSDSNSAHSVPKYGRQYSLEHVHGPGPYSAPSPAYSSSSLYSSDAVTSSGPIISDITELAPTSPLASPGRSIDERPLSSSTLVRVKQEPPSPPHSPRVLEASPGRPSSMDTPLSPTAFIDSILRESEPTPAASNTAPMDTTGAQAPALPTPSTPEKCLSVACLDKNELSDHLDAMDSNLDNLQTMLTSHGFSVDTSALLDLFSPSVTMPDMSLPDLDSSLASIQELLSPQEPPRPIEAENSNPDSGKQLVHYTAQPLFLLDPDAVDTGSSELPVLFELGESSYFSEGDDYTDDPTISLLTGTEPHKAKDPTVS

[2] = target: Luciferin 4-monooxygenase (Photinus pyralis, UniProt P08659); assay: firefly luciferase enzyme inhibitors, dose response, biochemical, luminescence (AID 1891)
Luciferin 4-monooxygenase, sequence (P08659 whole entry): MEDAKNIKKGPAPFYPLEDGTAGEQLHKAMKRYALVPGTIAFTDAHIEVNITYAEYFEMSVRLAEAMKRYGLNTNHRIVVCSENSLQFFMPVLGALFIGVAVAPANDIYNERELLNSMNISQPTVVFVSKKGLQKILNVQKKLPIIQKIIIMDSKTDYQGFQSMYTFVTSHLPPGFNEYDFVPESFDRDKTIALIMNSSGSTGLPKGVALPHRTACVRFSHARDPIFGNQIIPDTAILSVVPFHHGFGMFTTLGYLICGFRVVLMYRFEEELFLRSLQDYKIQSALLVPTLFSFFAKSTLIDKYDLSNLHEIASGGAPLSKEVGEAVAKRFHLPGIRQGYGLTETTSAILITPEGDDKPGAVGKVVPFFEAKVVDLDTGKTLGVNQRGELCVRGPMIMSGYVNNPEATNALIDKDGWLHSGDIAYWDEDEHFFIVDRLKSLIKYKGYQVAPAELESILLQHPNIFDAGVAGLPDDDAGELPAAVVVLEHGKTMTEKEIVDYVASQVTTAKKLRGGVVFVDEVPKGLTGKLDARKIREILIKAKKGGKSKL

[3] = Luminescence Cell-Based Dose Confirmation HTS to Identify Inhibitors of Platelet Dense Granule Release. [Related pubchem assays: 1663 (Primary HTS), 1678 (Summary of Project)]; assay type: functional
[4] = cytotoxicity in HEK-293T cells, dose response, cytotoxicity control for TCR NF-kB inhibitor project, luminescence, T-cell screen hits (AID 489026); assay type: functional, cell-based;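 further: cells exposed to compound about 14 hours before the viability readout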
[5] = target: T2, Microphthalmia-associated transcription factor (Homo sapiens, UniProt O75030); assay: TRPM1 promoter luciferase signal decrease, dose response, MITF inhibitor project, cell-based, SK-MEL-5, cherry-picked, set 3 (AID 493073); assay type: functional
T2 sequence (O75030 whole entry): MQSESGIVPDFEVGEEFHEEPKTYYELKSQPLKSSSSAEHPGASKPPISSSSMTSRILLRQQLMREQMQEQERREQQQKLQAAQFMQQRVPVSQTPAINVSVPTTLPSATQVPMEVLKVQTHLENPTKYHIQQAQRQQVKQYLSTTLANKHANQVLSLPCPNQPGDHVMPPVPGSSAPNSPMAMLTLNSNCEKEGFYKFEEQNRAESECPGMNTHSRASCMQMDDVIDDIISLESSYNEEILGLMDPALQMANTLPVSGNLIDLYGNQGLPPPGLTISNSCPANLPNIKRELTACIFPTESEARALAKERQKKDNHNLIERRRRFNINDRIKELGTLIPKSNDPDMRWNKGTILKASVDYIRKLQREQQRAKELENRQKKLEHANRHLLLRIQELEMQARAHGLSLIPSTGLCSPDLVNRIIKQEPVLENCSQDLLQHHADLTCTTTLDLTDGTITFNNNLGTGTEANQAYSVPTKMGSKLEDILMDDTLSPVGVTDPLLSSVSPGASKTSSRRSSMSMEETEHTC

A-375 = assay: MITF: Counter assay: A375 proliferation Measured in Cell-Based System Using Plate Reader - 2084-03_Inhibitor_Dose_DryPowder_Activity. [Related pubchem assays (depositor defined):AID488944]; assay type: functional; conditions: Homo sapiens
[6] = Shn3 3'UTR reporter inhibitors, dose response, cell-based, Clone20 osteoblasts, firefly luciferase, cherry-picked (AID 624132); assay type: functional;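 further: firefly luciferase luminescence from reporter carrying the Shn3 3'UTR in osteoblasts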
[7] = HepG2 cell cytotoxicity, dose response, cytotoxicity control for Shn3 inhibitor project, CellTiter-Glo, cherry-picked (AID 624134); assay type: functional, cell-based
[8] = inhibitors of HIV Env-driven cell fusion, dose response, cherry-pick (AID 652057); assay type: functional, cell-based
[9] = CEM21 lymphoblast cell cytotoxicity, dose response, cytotoxicity control for viral fusion inhibitor project, CellTiter-Glo luminescence, cherry-picked (AID 652042); assay type: functional, cell-based;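 further: potency for signal decrease meaning cytotoxicity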
[10] = ZM109 Env clade C HIV-1 fusion inhibitors, dose response, HeLa effector, CEM target cells, luciferase, cherry-pick (AID 652058); assay type: functional, cell-based
Paired box protein Pax-8 = Paired box protein Pax-8 (Homo sapiens, UniProt Q06710); assay: inhibitors of PAX8-driven TPO luciferase reporter, dose response, RMG-I cells, cherry-pick (AID 687027); assay type: functional, cell-based;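 further: luciferase reporter driven by Pax8 target thyroperoxidase promoter measured by SteadyGlo luminescence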
Paired box protein Pax-8, sequence (Q06710 whole entry, the tested form may be a part): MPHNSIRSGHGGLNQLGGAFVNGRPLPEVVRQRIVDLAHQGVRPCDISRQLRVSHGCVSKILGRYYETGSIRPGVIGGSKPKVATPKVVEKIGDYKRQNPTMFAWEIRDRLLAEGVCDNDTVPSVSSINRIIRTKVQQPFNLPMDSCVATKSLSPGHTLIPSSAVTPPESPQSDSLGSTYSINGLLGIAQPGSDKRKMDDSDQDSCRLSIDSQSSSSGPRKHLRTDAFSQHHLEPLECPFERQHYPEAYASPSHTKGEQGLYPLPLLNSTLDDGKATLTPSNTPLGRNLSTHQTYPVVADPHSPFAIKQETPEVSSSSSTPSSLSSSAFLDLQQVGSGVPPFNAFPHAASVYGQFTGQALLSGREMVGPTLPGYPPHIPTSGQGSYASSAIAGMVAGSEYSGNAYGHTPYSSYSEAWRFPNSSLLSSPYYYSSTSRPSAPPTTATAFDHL

[11] = off-target signal loss in HeLa-CEM21 co-culture – HeLa F-luc CTL cells, cherry-picked, counter-screen for HIV-1 Env fusion inhibitor project, dose response (AID 652040); assay type: functional, cell-based;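 further: potency for signal decrease marking cytotoxic or nonspecific inhibition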
[12] = inhibitors of clade B AD8 Env fusion, dose response, cell-based, cherry-pick (AID 652062); assay type: functional;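 further: luciferase signal from cell-cell fusion driven by HIV-1 clade B AD8 Env; potency is for inhibitors of fusion seen as a drop in luminescence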
[13] = A549 cell cytotoxicity, dose response, cytotoxicity control, plate reader, cherry-pick, antagonist series (AID 743412); assay type: functional, cell-based
[14] = HepG2 cell cytotoxicity, dose response, cytotoxicity control, plate reader, cherry-pick, antagonist series (AID 743416); assay type: functional, cell-based
[15] = LGR2 antagonists, dose response, cell-based, HEK293, CRE-luciferase reporter, cherry pick, set 2 (AID 743343); assay type: functional;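 further: transfected cells were stimulated with diluted bursicon conditioned medium after compound addition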
[16] = non-specific cell cytotoxicity, dose response, cytotoxicity control for PAX8 inhibitor project, plate reader, dry powder samples (AID 743021); assay type: functional, cell-based
[17] = MC4R antagonists, dose response, counter-screen for LGR2 antagonist project, cell-based, plate reader, cherry pick (AID 743444); assay type: functional;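 further: transfected HEK 293 cells stimulated with alpha-MSH peptide; potency of inhibitors of the alpha-MSH evoked signal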
[18] = HEK293 cell cytotoxicity, dose response, cytotoxicity control, plate reader, cherry-picked samples (AID 743446); assay type: functional, cell-based
[19] = target: Delta-type opioid receptor (Homo sapiens, UniProt P41143); assay: Counterscreen for agonists of heterodimerization of the mu 1 (OPRM1) and delta 1 (OPRD1) opioid receptors: Luminescence-based cell-based high throughput dose response assay to identify agonists of OPRD1 homodimerization. [Related pubchem assays (depositor defined):AID504326, AID504355, AID504692, AID504904, AID504905]; assay type: functional
Delta-type opioid receptor, sequence (P41143 whole entry): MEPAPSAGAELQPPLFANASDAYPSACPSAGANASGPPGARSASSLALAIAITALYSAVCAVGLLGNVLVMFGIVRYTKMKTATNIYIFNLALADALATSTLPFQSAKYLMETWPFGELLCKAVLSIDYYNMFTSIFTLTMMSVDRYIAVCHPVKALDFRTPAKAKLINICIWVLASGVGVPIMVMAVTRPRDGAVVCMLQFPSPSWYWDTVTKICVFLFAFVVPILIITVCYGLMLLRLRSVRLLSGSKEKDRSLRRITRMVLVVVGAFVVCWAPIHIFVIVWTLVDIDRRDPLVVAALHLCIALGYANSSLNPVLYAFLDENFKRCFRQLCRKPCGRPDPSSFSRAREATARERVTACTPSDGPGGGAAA

Mu-type opioid receptor = Mu-type opioid receptor (Homo sapiens, UniProt P35372); assay: Counterscreen for agonists of heterodimerization of the mu 1 (OPRM1) and delta 1 (OPRD1) opioid receptors: Luminescence-based cell-based high throughput dose response assay to identify agonists of OPRM1 homodimerization.; assay type: functional;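 further: U2OS cells expressing OPRM1 and beta-arrestin as split beta-galactosidase partners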
Mu-type opioid receptor, sequence (P35372 whole entry): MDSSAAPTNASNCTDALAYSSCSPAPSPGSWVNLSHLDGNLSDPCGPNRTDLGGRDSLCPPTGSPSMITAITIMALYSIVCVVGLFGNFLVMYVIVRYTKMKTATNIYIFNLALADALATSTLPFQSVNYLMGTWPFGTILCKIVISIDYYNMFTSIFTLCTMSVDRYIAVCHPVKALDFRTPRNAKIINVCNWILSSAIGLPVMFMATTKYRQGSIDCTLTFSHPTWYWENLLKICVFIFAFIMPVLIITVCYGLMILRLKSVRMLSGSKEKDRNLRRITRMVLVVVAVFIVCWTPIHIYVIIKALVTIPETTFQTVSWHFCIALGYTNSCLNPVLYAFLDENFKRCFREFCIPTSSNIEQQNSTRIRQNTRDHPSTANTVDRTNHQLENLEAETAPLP

[20] = target: 5-hydroxytryptamine receptor 5A (Homo sapiens, UniProt P47898); assay: Counterscreen for agonists of OPRM1-OPRD1 heterodimerization: luminescence-based cell-based high throughput dose response assay to identify agonists of 5-hydroxytryptamine (serotonin) 5A receptor (HTR5A). [Related pubchem assays (depositor defined):AID504326, AID504355, AID504692, AID504904, AID504905]; assay type: functional
5-hydroxytryptamine receptor 5A, sequence (P47898 whole entry): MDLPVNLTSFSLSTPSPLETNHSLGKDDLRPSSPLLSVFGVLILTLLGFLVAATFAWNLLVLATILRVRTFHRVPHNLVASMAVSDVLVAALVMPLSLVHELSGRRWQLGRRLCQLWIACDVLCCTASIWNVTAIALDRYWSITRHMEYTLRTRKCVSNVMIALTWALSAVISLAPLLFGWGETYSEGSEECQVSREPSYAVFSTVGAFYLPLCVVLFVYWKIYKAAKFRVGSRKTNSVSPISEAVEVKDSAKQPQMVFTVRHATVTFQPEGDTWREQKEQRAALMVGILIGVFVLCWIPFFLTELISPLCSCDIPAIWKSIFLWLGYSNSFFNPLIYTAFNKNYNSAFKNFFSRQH

HEK293 = assay: cells; assay type: functional, cell-based; conditions: Homo sapiens
[21] = target: Nuclear receptor subfamily 0 group B member 1 (Homo sapiens, UniProt P51843); assay: Luminescence-based cell-based high throughput dose response assay for inhibitors of the orphan nuclear receptor subfamily 0, group B, member 1 (DAX1; NR0B1). [Related pubchem assays (depositor defined):AID504766, AID504790]; assay type: functional
Nuclear receptor subfamily 0 group B member 1, sequence (P51843 whole entry): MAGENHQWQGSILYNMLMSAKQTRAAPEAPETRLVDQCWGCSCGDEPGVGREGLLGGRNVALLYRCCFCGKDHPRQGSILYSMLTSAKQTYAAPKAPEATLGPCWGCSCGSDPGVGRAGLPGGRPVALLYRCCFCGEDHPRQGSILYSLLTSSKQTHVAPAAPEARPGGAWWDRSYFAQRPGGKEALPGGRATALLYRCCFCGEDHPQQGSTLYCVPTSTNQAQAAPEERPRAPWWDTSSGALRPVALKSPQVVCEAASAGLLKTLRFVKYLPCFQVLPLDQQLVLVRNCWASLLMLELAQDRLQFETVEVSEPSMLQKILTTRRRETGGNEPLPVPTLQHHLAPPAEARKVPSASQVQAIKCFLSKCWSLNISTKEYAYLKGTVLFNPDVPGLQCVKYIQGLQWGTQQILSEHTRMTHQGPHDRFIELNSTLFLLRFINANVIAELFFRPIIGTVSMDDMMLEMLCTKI

C=CCn1c(C)cc(C2=NN=C(NCC)SC2)c1C
EC50 [1]: < 0.16 µM (active) | EC50 [2]: 5.03 µM (active) | EC50 [3]: 2.02 µM (active) | IC50 [4]: > 80 µM (inactive) | AC50 [5]: 0.056 µM (active) | AC50 (A-375): 25.7 µM (active) | AC50 [6]: < 0.26 µM (active) | AC50 [7]: 26 µM (active) | AC50 [8]: 0.295 µM (active) | AC50 [9]: 34.7 µM (active) | AC50 [10]: 2.94 µM (active) | AC50 (Paired box protein Pax-8): 0.267 µM (active) | AC50 [11]: 0.554 µM (active) | AC50 [12]: 0.359 µM (active) | AC50 [13]: 11.7 µM (active) | AC50 [14]: 3.64 µM (active) | AC50 [15]: < 0.068 µM (active) | AC50 [16]: 8.07 µM (active) | AC50 [17]: < 0.068 µM (active) | AC50 [18]: 14.5 µM (active)

Cc1c(CCOC(=O)c2ccccc2)sc[n+]1CC(=O)c1ccc(Br)cc1
EC50 [19]: > 92.5 µM (inactive) | EC50 (Mu-type opioid receptor): > 92.5 µM (inactive) | EC50 [20]: > 92.5 µM (inactive)

COc1ccccc1NC(=O)Nc1ccc2c(c1)OCCO2
IC50 (HEK293): > 67.5 µM (inactive) | IC50 [21]: > 67.5 µM (inactive)
